These are literature values, as cited in PMC4844649, “A first-in-Asian phase 1 study to evaluate safety, pharmacokinetics and clinical activity of VS-6063, a focal adhesion kinase (FAK) inhibitor in Japanese patients with advanced solid tumors” (Cancer Chemotherapy and Pharmacology, 2016).

Details of series [1]: method as in earlier work. To be noted: at the higher doses, phase 1 dose-escalation ref 11, 12; cited from earlier work.
Another series concerns advanced solid tumors. Conditions: cited from earlier work.
Series [2] concerns Tregs and CD8 + T cells in the tumor microenvironment. Set-up: method as in PMID 26406376. To be noted: squamous cell carcinoma model ref 17; cited from earlier work.

SMILES strings stand for the structures. Read-outs that look alike come from different tables or passages of the source.

Take `COc1cc(C(=O)NC2CCN(C)CC2)c(F)cc1Nc1ncc(C(F)(F)F)c(Oc2cccc3c2C(=O)N(C)C3)n1` [BI 853520]: in series [1], the dose-limiting toxicities entry is “both proteinuria and fatigue were dose-limiting (Grade 3)”. In the series with advanced solid tumors (phase 1 ref 11, 12), the objective radiographic responses entry is given as “No objective radiographic responses”.
For the compound `CN(c1ncccc1CNc1nc(Nc2ccc3c(c2)CC(=O)N3)ncc1C(F)(F)F)S(C)(=O)=O` [PF-00562271], in the series on advanced solid tumors (phase 1 ref 10), the objective radiographic responses entry is “No objective radiographic responses”.
`CONC(=O)c1ccccc1Nc1cc(Nc2cc(C)nn2C(C)C)ncc1Cl` [GSK2256098]: the objective radiographic responses result in the series on advanced solid tumors (phase 1 ref 15) is “No objective radiographic responses”.
Regarding `CNC(=O)c1ccccc1Nc1cc(Nc2ccc(N3CCOCC3)cc2OC)ncc1C(F)(F)F` [VS-4718], the “effect on Tregs and CD8 + T cell-mediated anti-tumor response” value in series [2] is “drives depletion of Tregs and promotes a CD8 + T cell-mediated anti-tumor response”.
